Results reported in ChEMBL document CHEMBL1201862, “PubChem BioAssay data set” (2004).
Activity calls are given as the source filed them.

Columns and labels:
[1] = target: Luciferin 4-monooxygenase (Photinus pyralis, UniProt P08659); test: firefly luciferase enzyme inhibitors, dose response, biochemical, luminescence (AID 1891)
[2] = Luminescence Cell-Based Dose Confirmation HTS to Identify Inhibitors of Platelet Dense Granule Release. [Related pubchem assays: 1663 (Primary HTS), 1678 (Summary of Project)]; assay type: functional
[3] = target: T1, Polyadenylate-binding protein 1 (Homo sapiens, UniProt P11940); test: PABP1 MLLE–PAM2 binding inhibitor potency, dose response, biochemical, fluorescence polarization, FITC-PAM2 peptide (AID 602259); assay type: functional; details: read-out: IC50_Mean
T1 sequence (P11940 whole entry): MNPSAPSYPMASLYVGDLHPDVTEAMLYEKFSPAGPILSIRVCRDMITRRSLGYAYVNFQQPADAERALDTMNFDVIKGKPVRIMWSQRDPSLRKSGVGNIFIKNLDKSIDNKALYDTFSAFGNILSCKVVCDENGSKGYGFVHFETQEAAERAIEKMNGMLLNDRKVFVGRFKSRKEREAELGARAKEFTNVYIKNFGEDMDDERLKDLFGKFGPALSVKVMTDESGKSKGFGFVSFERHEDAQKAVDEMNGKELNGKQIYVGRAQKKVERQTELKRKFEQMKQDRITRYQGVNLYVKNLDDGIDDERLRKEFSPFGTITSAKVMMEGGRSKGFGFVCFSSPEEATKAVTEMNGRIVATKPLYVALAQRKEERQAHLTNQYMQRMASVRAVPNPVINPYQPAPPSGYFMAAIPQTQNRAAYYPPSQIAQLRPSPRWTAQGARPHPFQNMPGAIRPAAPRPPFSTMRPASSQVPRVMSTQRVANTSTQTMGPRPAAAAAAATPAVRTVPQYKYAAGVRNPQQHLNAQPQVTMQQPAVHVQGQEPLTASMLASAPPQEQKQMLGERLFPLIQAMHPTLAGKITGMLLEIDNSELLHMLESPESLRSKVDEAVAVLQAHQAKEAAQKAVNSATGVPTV

[4] = target: T1, Polyadenylate-binding protein 1; test: PABP1 MLLE–PAM2 interaction inhibitors, dose response, miRNA deadenylation inhibitor project, biochemical, fluorescence polarization, Cy5-PAM2 peptide, secondary (AID 602260); assay type: functional; details: read-out: IC50_Mean
[5] = target: Cytochrome P450 2C9 (Homo sapiens, UniProt P11712)
Cytochrome P450 2C9, sequence (P11712 whole entry): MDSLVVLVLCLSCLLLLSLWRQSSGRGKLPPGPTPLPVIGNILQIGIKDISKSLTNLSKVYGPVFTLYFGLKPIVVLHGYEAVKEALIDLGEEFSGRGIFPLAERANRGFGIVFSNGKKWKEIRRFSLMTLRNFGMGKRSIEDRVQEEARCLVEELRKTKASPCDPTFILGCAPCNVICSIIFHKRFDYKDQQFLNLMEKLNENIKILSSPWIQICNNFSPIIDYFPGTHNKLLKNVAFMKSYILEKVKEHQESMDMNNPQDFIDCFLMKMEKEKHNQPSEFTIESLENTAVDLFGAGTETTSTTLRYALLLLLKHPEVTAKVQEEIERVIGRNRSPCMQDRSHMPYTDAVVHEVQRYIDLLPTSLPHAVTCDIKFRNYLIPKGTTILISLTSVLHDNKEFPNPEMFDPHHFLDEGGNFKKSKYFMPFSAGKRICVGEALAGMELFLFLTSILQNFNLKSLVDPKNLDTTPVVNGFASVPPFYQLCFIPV

[6] = target: Cytochrome P450 3A4 (Homo sapiens, UniProt P08684);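 also: CYP3A4 tested as one member of a cytochrome P450 panel screen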
Cytochrome P450 3A4, sequence (P08684 whole entry): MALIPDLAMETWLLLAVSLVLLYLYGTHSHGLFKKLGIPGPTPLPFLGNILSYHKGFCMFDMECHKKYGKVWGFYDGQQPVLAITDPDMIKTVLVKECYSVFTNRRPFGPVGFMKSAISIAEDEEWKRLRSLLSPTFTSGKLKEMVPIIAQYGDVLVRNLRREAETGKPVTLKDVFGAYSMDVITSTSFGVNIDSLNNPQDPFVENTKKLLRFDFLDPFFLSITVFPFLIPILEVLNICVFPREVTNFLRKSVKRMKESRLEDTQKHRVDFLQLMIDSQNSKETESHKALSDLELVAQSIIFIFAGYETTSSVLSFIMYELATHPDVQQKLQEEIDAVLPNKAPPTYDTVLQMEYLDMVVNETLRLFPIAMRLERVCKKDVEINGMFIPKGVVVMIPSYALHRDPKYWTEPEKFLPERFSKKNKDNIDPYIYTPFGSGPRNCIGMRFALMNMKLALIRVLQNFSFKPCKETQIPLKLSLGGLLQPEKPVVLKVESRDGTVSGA

[7] = target: Cytochrome P450 2C19 (Homo sapiens, UniProt P33261); test: Cytochrome panel assay with activity outcomes. Panel member name: p450-cyp2c19 Compounds with AC50 equal or less than 10 uM are considered active; assay type: functional
Cytochrome P450 2C19, sequence (P33261 whole entry): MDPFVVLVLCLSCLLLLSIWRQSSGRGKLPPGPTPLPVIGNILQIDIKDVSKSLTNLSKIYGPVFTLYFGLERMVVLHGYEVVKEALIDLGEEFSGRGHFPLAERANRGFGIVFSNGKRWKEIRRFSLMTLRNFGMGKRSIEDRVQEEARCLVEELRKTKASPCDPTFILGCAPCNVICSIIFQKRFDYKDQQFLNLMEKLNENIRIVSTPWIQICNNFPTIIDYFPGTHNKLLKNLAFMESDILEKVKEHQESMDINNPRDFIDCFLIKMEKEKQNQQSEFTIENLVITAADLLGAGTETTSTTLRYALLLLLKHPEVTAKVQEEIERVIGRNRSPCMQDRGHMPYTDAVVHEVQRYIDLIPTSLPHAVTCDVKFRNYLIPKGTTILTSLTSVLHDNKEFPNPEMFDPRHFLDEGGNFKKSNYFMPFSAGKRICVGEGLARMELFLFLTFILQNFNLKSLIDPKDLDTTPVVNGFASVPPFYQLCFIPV

[8] = NIH-3T3 fibroblast cytotoxicity, dose response, cytotoxicity control, cell-based, fluorescence, Alamar Blue, secondary assay (AID 2327); assay type: functional;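 also: NIH-3T3 mouse fibroblasts cultured with fluconazole at 8 µg/mL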
[9] = C. albicans growth with fluconazole, confirmation, fluorescence, retest (AID 2467); assay type: functional, cell-based
[10] = test system: BJ; test: cytotoxicity toward BJ-TERT-LT-ST fibroblasts, dose response, cell-based, RAS-independent, luminescence (AID 1935); assay type: functional; details: Homo sapiens;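 also: BJ fibroblasts immortalized with TERT plus LT and ST oncogenes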
[11] = test system: BJ; test: cells; assay type: functional, cell-based; details: Homo sapiens
[12] = test system: BJ; test: cytotoxicity toward BJ-TERT fibroblasts, dose response, cell-based, RAS-independent, luminescence (AID 1933); assay type: functional; details: Homo sapiens
[13] = target: T2, Replicative DNA helicase DnaB (Mycobacterium tuberculosis, UniProt P9WMR3); test: DnaB intein splicing inhibitors, dose response, biochemical, cell-free fluorescence (AID 449749); assay type: functional
T2 sequence (P9WMR3 whole entry): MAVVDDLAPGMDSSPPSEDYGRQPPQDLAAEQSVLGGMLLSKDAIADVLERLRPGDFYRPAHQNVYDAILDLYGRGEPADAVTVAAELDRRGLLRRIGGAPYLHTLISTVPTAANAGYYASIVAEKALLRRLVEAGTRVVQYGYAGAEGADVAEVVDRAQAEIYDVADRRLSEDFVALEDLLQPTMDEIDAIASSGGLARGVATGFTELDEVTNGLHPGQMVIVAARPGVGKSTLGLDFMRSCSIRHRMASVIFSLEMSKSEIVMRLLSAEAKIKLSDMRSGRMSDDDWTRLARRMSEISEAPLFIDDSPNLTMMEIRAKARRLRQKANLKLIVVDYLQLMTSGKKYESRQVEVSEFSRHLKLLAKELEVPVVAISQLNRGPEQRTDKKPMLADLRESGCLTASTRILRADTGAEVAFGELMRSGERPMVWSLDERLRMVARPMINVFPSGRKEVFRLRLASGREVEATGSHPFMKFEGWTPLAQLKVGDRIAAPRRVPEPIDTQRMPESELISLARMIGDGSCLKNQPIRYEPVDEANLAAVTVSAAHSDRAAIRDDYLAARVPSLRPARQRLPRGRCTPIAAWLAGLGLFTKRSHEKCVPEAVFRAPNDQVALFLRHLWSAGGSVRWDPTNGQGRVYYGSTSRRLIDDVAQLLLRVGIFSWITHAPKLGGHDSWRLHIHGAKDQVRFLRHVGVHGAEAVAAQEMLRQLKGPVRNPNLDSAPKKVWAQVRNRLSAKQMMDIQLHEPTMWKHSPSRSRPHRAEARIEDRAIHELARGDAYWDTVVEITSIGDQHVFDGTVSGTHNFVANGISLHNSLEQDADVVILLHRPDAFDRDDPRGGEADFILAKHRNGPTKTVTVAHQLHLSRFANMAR

[14] = target: T3, Protein RecA (Mycobacterium tuberculosis, UniProt P9WHJ3); test: Fluorescence Cell-Free Homogeneous Dose Retest to Identify Inhibitors of RecA-Intein Splicing Activity. [Related pubchem assays (depositor defined):AID2097, AID2223, AID489010, AID492950]; assay type: functional
T3 sequence (P9WHJ3 whole entry): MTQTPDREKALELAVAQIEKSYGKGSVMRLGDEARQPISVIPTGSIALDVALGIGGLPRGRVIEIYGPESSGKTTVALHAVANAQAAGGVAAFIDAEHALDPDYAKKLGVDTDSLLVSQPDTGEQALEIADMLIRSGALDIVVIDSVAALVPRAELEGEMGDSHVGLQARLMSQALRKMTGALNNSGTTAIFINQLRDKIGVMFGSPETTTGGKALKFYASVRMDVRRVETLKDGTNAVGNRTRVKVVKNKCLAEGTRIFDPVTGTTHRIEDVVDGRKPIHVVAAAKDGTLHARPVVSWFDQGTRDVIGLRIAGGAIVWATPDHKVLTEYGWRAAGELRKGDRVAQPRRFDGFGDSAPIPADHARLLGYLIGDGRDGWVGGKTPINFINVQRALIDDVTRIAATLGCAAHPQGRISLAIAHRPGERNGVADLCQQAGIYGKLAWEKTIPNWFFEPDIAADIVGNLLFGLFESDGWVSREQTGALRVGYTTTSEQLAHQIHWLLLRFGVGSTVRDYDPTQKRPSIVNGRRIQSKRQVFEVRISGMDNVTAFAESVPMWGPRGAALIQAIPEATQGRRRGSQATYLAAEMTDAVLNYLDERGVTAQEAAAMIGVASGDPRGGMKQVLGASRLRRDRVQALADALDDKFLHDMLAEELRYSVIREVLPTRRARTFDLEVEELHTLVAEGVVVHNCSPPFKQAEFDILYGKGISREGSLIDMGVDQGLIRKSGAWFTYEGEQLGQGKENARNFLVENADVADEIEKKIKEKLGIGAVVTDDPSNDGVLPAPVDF

[15] = cytotoxicity toward DRD oncogenic fibroblasts, dose response, cell-based, non-viral oncogenic, luminescence (AID 1934); assay type: functional; details: Homo sapiens
[16] = inhibitors of SNCA 5'UTR-driven reporter translation, confirmation, H4 neuroglioma cells, luminescence (AID 1988); assay type: functional, cell-based
[17] = Luminescence Cell-Based Dose Response HTS to Identify Inhibitors of 5'UTR Stem-Loop Driven Prion Protein mRNA Translation in H4 Neuroglioblastoma Cells. [Related pubchem assays: 1827 (Project Summary), 1813 (Primary HTS)]; assay type: functional
[18] = inhibitors of firefly luciferase expression or activity, dose response, H4 neuroglioma cells, luminescence (AID 1990); assay type: functional, cell-based
[19] = test system: H4; test: Luminescence Cell-Based Dose Response HTS to Identify Activators of 5'UTR Stem-Loop Driven Prion Protein mRNA Translation in H4 Neuroglioblastoma Cells. [Related pubchem assays: 1829 (Project Summary), 1814 (Primary HTS)]; assay type: functional; details: Homo sapiens
[20] = Luminescence Cell-Based Dose Response HTS to Identify Activators of Luciferase Translation or Activity in H4 […] Cells. [Related pubchem assays: 1829 (Project Summary), 1814 (Primary HTS)]; assay type: functional

Luciferin 4-monooxygenase, sequence (P08659 whole entry): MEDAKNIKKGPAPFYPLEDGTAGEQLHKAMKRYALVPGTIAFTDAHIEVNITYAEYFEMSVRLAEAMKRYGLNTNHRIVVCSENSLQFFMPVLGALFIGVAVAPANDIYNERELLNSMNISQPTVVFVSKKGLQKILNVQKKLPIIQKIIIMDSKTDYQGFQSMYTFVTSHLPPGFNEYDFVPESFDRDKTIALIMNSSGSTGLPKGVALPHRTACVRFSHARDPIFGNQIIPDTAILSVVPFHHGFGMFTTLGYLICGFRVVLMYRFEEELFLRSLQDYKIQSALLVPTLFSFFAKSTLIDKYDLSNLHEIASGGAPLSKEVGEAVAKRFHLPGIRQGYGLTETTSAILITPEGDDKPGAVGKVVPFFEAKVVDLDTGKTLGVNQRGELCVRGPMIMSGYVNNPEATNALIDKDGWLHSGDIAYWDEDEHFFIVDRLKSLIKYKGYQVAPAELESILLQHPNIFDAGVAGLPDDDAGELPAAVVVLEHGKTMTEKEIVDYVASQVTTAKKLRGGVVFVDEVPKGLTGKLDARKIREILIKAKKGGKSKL

Which EC50 [1] does the source give for `COC(=O)c1sc(NC(=O)c2ccoc2C)nc1C` here?
Its EC50 is 2.44 µM (active).

What about the EC50 [2] of the same compound?
Its EC50 is 5.71 µM (active).

Which IC50 [3] does the source give for `COc1cccc(C(=O)NCc2ccc3[nH]c(C)cc3c2)c1` here?
Its IC50 is > 66 µM (inactive).

What about the IC50 [4] of the same compound?
The IC50 was > 66 µM (inactive).

For `Cc1nc(N=C(N)S)sc1C(=O)Nc1ccccc1`, which AC50 [5] is on record?
The AC50 was 39.8 µM (inconclusive).

What about the AC50 [6] of the same compound?
Its AC50 is 14.1 µM (inconclusive).

And the IC50 [3]?
The IC50 was > 66 µM (inactive).

What about the IC50 [4] of the same compound?
The IC50 was > 66 µM (inactive).

And the AC50 [7]?
Its AC50 is “inconclusive”.

With `COc1ccc(C(=O)NC(=S)N2CCCc3ccccc32)cc1OC` as the compound, how does the IC50 [3] read?
The IC50 was > 66 µM (inactive).

What about the IC50 [4] of the same compound?
The IC50 was > 66 µM (inactive).

With `Cc1ccc(C(=O)NC(=O)OCCn2c(C)cnc2[N+](=O)[O-])cc1` as the compound, how does the EC50 [8] read?
Its EC50 is > 160 µM (inconclusive).

And the EC50 [9]?
Its EC50 is > 38 µM (not active).

Which results are given for `Cc1ccc2nc(O)c(C(c3nnnn3CC3CCCO3)N3CCc4ccccc4C3)cc2c1` (configuration not stated)?
IC50 [3]: > 66 µM (inactive); IC50 [4]: > 66 µM (inactive)

For `CCOC(=O)c1sc(N(Cc2ccccc2)C(=O)CCl)nc1C`, which EC50 [10] is on record?
Its EC50 is 8.8 µM (active).

What about the EC50 [11] of the same compound?
Its EC50 is 11.9 µM (active).

And the EC50 [12]?
Its EC50 is 1.77 µM (active).

And the AC50 [13]?
The AC50 was 2.6 µM (active).

What about the EC50 [14] of the same compound?
Its EC50 is 0.79 µM (active).

And the EC50 [15]?
The EC50 was 4.97 µM (inconclusive).

Which EC50 [8] does the source give for `O=C(O)c1ccc(CN2C(=O)CSC2=S)cc1` here?
Its EC50 is > 150 µM (inactive).

And the EC50 [9]?
Its EC50 is 0.153 µM (active).

Which EC50 [16] does the source give for `O=c1c2ccccc2c(-c2ccc(O)cc2)nn1-c1cccc(C(F)(F)F)c1` here?
Its EC50 is > 120 µM (not active).

What about the EC50 [17] of the same compound?
Its EC50 is > 120 µM (not active).

And the EC50 [18]?
Its EC50 is 16.6 µM (active).

Which IC50 [3] does the source give for `O=S(=O)(NCCCSc1ccccc1)c1ccccc1F` here?
Its IC50 is > 66 µM (inactive).

What about the IC50 [4] of the same compound?
Its IC50 is > 66 µM (inactive).

For `O=C1/C(=C\c2ccccc2)C2OCC=C3CN4CCC56c7ccccc7N1C5C2C3CC46` (configuration not stated), which EC50 [10] is on record?
The EC50 was > 75 µM (inconclusive).

And the EC50 [11]?
Its EC50 is > 150 µM (not active).

What about the EC50 [12] of the same compound?
The EC50 was 19.4 µM (active).

What about the EC50 [15] of the same compound?
The EC50 was 15.3 µM (active).

Which results are given for `O=[N+]([O-])c1cccc(N/N=C/c2ccc(N3CCOCC3)cc2)c1`?
EC50 [19]: 13.1 µM (active); EC50 [20]: 46.8 µM (active)

With `CCN(CC)CCCCNc1ncc2cc(-c3cc(OC)cc(OC)c3)c(NC(=O)NC(C)(C)C)nc2n1` [PD-173074] as the compound, how does the EC50 [16] read?
Its EC50 is 9.24 µM (active).

What about the EC50 [17] of the same compound?
The EC50 was 12.8 µM (active).

And the EC50 [18]?
The EC50 was > 120 µM (not active).
